Consider 3 compounds from paper PMC12856912, “Structure-Guided Semisynthesis of Blasticidin S–Amicetin Chimeras as Selective Ribosome Inhibitors” (Journal of the American Chemical Society, 2026).

Data set [1] in a line: Cytotoxicity assay (MTS/PMS). The format is cell-based. Particulars: monkey, Vero cells (monkey kidney epithelial cells); 24 h treatment, MTS/PMS, average of three biological replicates; read-out: CC50 against Vero cells. The procedure: The potential cytotoxic eff ect of the test compounds was investigated using Vero cells (monkey kidney epitheli al cells) following est ablished protocols.3 Briefly, Vero cells were plated into 96-well plates supplemented with Dulbecco's Modified Eagle Medium (DMEM) containing 10% fetal bovine serum (FBS). The cells were placed in a humidified 37 °C environment for incubation with 5% CO₂ for 24 h to allow proper adherence and growth. Following the incubation period, the culture medium was replaced with fresh DMEM containing serial dilutions of the test compounds, while the v ehicle alon e w as used as a negative control. The treated cells were incubated for an additional 24 h. To assess cell viability, the MTS/PMS reagent was added to each well and incubat ed for 4 h. A microplate reader (S ynergy H1, BioTek, USA) was used to m easure absorbance at 490 nm. Al l experiments wer e cond ucted usingthree biologi cal replicates .
Ta b l e S2. CC50 valuesa (µg/mL) against Vero cells […]
aValues at which the cell viability (normalized to vehicle control) was 50%. […]

Data set [2] deals with Methicillin resistant S. aureus (MRSA) USA300. Put plainly: Antibacterial MIC assay, serial dilution. The format is cell-based, Staphylococcus aureus. Particulars: for Selectivity index (CC50/MIC) MRSA USA300: CC50 Vero cells / MIC; for MIC: Staphylococcus aureus, read-out: MIC Methicillin resistant S. aureus (MRSA) USA300.
In data set [3] the test system is Methicillin resistant Staphylococcus epidermidis (MRSE) ATCC 35984 NRS101. In words: Antibacterial MIC assay, serial dilution. The format is cell-based. Particulars: for Selectivity index (CC50/MIC) MRSE 35984: CC50 Vero cells / MIC; for MIC: Staphylococcus epidermidis, read-out: MIC Methicillin resistant Staphylococcus epidermidis (MRSE) ATCC 35984 NRS101.
In another data set the test system is Pseudomonas aeruginosa. In words: Antibacterial MIC assay, serial dilution. The class given is cell-based. Particulars: for Selectivity index (CC50/MIC) P. aeruginosa: CC50 Vero cells / MIC; for MIC: Pseudomonas aeruginosa, range from biological replicates, read-out: MIC P. aeruginosa. The method, then:
(§1) Media and solutions were autoclaved or sterile filtered prior to use and mani pulations were carri ed out in a laminar flow hood. Antibacterial t esting was performed in polypropylene 96-well flat bottom plates. The minimal inhibitory concentration of blasticidin S (1) hydrochloride, methyl ester (3) trihydrochloride, P10 (2) tri-T FA , phenet hyl amide (4) tri -T FA , an d blastimidines M 19– 22, A, 29–32, P 37–40, and C 43–46 (salt forms as described in the te xt) were assessed against Staphylococcus aureus ΔNorA, S. aureus ATCC 6538P, methicillin-resistant S. aureus (MRSA) ATCC 43300, Enterococcus faecalis ATCC 29212, vancomycin- resistant Enterococcus, Klebsiella pneumoniae ATCC 29665, Pseudomonas aeruginosa,and Acinetobacter baumannii ATCC 17978 using serial dilutions. Doxycycline (Gold Bio) as a positive control and the vehicle as a negative control. Stock solutions of each compound were prepared at 2.56 mg/mL in 50% DMSO/water and serially diluted in 50% DMSO/water to create master plates. From the master plates, 10 μ L o f each dilution was applied to test plates using a Bravo automated liquid transfer system (Agilent).
(§2) Bacteria previously grown overnight (37 °C, 120–200 RPM), in LB broth were diluted to an OD600 of 0.05 in cation-adjusted Mueller-Hinton broth (CAMHB), grown to an OD600 of ~0.5, and diluted to an OD600 of 0.004 in CAMHB . These diluted cultures were applied to the test plates (190 μL per test well) resulting in final concentrations of the test compounds of 128–1 μg/ m L.
(§3) Growth controls (wells with inoculated media but no vehicle or test compounds) were included to assess any potential toxicity from the vehicle. Th e plates were in cubated at 37 °C for 16–18 h, except fo r VRE and E. faecalis, which w ere in cub ated at 37 °C fo r 24 h. Inh ibition was determined by measuring the optical density at 600 nm (OD60 0) with a Cytation 3 pl ate read er (BioTek). The optical density measurem ents were no rmalized to the positive and negative controls and the vehicle and growth controls were compared and found to b e indistinguishable, indicating no toxicity from […]
(§4) the vehicle used. The MIC was the lowest concentration that inhibited >90% of growth. Two biological replicates were performed in duplicate. MIC values are reported as a range from […]

In data set [4] the test system is Acinetobacter baumannii ATCC 17978. Put plainly: Antibacterial MIC assay, serial dilution. The note with it: ATCC17978, range from biological replicates. The class given is cell-based. The procedure:
as §1, §2, §3, §4

Data set [5] has as its system Klebsiella pneumoniae ATCC 29665. In words: Antibacterial MIC assay, serial dilution. The class given is cell-based. The note with it: for MIC: Klebsiella pneumoniae, ATCC29665, range from biological replicates, read-out: MIC K. pneumoniae ATCC-29665. The method, then:
as §1, §2, §3, §4

Data set [6] relates to Enterococcus faecalis ATCC 29212. In words: Antibacterial MIC assay, serial dilution. Particulars: for Selectivity index (CC50/MIC) E. faecalis 29212: CC50 Vero cells / MIC; for MIC: Enterococcus faecalis, ATCC 29112 / ATCC 29212, 24 h, read-out: MIC E. faecalis ATCC 29112. The class given is cell-based. The procedure:
as §1, §2, §3, §4

For data set [7], the system named is Vancomycin resistant Enterococcus faecium NR-31909 (VRE). In words: Antibacterial MIC assay, serial dilution. The format is cell-based. Particulars: for Selectivity index (CC50/MIC) VRE NR-31909: CC50 Vero cells / MIC; for MIC: Enterococcus faecium, VRE, 24 h, read-out: MIC Vancomycin resistant Enterococcus faecium NR-31909 (VRE). The procedure: as §1, §2, §3, §4

For another data set, the system named is S. aureus ΔNorA. In words: Antibacterial MIC assay, serial dilution. The class given is cell-based, Staphylococcus aureus. Particulars: for Selectivity index (CC50/MIC) S. aureus ΔNorA: CC50 Vero cells / MIC; for MIC: Staphylococcus aureus, read-out: MIC S. aureus ∆NorA. The procedure:
as §1, §2, §3, §4

In a further data set the test system is S. aureus ATCC 6538P. In words: Antibacterial MIC assay, serial dilution. The note with it: for Selectivity index (CC50/MIC) S. aureus 6538P: CC50 Vero cells / MIC; for MIC: Staphylococcus aureus, ATCC 6538P / ATCC 6539P, read-out: MIC S. aureus ATCC 6539P. The class given is cell-based, Staphylococcus aureus. The procedure:
as §1, §2, §3, §4

The next data set deals with MRSA ATCC 43300. Put plainly: Antibacterial MIC assay, serial dilution. The format is cell-based, Staphylococcus aureus. The note with it: for Selectivity index (CC50/MIC) MRSA 43300: CC50 Vero cells / MIC; for MIC: Staphylococcus aureus, read-out: MIC MRSA ATCC 43300. The procedure:
as §1, §2, §3, §4

Data set [8] has as its system Vancomycin resistant E. faecalis NR-31972 (VRE). In words: Antibacterial MIC assay, serial dilution. The note with it: for Selectivity index (CC50/MIC) VRE NR-31972: CC50 Vero cells / MIC; for MIC: Enterococcus faecalis, VRE, 24 h, read-out: MIC Vancomycin resistant E. faecalis NR-31972 (VRE). The format is cell-based, Enterococcus faecalis. The method, then: as §1, §2, §3, §4

For data set [9], the system named is Escherichia coli BAA-2452. Put plainly: Antibacterial MIC assay, serial dilution. The class given is cell-based. Particulars: BAA2452, read-out: MIC Escherichia coli BAA-2452.

In brackets after ≈: the same amount, converted by molar mass.

The term CC50 denotes the concentration giving 50% cytotoxicity. For orientation: MIC means the smallest concentration in the dilution series that meets the test's criterion for growth inhibition. Take `CN(CC[C@H](N)CC(=O)N[C@H]1C=C[C@H](n2ccc(NC(=O)c3ccc(N)cc3)nc2=O)O[C@@H]1C(=O)O)C(=N)N` [Blastimidine C2]: the CC50 at 24 h in [1] amounted to 66 µg/mL (≈ 122 µM). In [2], the “Selectivity index (CC50/MIC) MRSA USA300” value was 0.5. Moreover, the MIC in data set [2] is 128 µg/mL (≈ 236 µM); in data set [3], more than 128 µg/mL; with Pseudomonas aeruginosa, more than 128 µg/mL; in data set [4], more than 128 µg/mL; in data set [5], 64 µg/mL (≈ 118 µM); in data set [6], 64 µg/mL (≈ 118 µM). In addition, the MIC in data set [7] is 64 µg/mL (≈ 118 µM); in the data set with S. aureus ΔNorA it was more than 128 µg/mL; with S. aureus ATCC 6538P it was more than 128 µg/mL; in the data set on MRSA ATCC 43300, more than 128 µg/mL; in data set [8], 128 µg/mL (≈ 236 µM); in data set [9] it was 64 µg/mL (≈ 118 µM). The “Selectivity index (CC50/MIC) MRSE 35984” value in [3] is less than 0.5. Besides, the “Selectivity index (CC50/MIC) P. aeruginosa” value in the data set on Pseudomonas aeruginosa is recorded as less than 0.5. In addition, the “Selectivity index (CC50/MIC) K. pneumoniae” value in [5] (CC50 Vero cells / MIC) turned out to be 1.0. For the same compound, the “Selectivity index (CC50/MIC) E. faecalis 29212” value in data set [6] came to 1.0. The “Selectivity index (CC50/MIC) VRE NR-31909” value in data set [7] turned out to be 1.0. Further, the “Selectivity index (CC50/MIC) S. aureus ΔNorA” value in the data set on S. aureus ΔNorA is on record as less than 0.5. Further, the “Selectivity index (CC50/MIC) S. aureus 6538P” value in the data set with S. aureus ATCC 6538P is on record as less than 0.5. Also, the “Selectivity index (CC50/MIC) MRSA 43300” value in the data set on MRSA ATCC 43300 was less than 0.5. In data set [8], the “Selectivity index (CC50/MIC) VRE NR-31972” value is on record as 0.5.

Regarding `CN(CC[C@H](N)CC(=O)N[C@H]1C=C[C@H](n2ccc(NC(=O)c3ccc(N)cc3)nc2=O)O[C@@H]1C(=O)NCCc1ccccc1)C(=N)N` [Blastimidine P2], in data set [1], the cytotoxic concentration (CC50) at 24 h is more than 256 µg/mL. The “Selectivity index (CC50/MIC) MRSA USA300” value in data set [2] is more than 8.0. Further, the MIC is 32 µg/mL (≈ 49.6 µM) in data set [2]; 16 µg/mL (≈ 24.8 µM) in [3]; 128 µg/mL (≈ 199 µM) in the data set on Pseudomonas aeruginosa; more than 128 µg/mL in data set [4]; more than 128 µg/mL in data set [5]; 8 µg/mL (≈ 12.4 µM) in data set [6]. Moreover, the MIC in [7] is 128 µg/mL (≈ 199 µM); in the data set on S. aureus ΔNorA, 8 µg/mL (≈ 12.4 µM); in the data set on S. aureus ATCC 6538P, 16 to 32 µg/mL (≈ 24.8 to 49.6 µM); with MRSA ATCC 43300, 64 µg/mL (≈ 99.3 µM); in [8], 16 µg/mL (≈ 24.8 µM); in [9], 128 µg/mL (≈ 199 µM). Besides, the “Selectivity index (CC50/MIC) MRSE 35984” value in data set [3] is on record as more than 16. Also, the “Selectivity index (CC50/MIC) P. aeruginosa” value in the data set with Pseudomonas aeruginosa is on record as more than 2.0. Further, in [6], the “Selectivity index (CC50/MIC) E. faecalis 29212” value was more than 32. The “Selectivity index (CC50/MIC) VRE NR-31909” value in data set [7] was more than 2.0. The “Selectivity index (CC50/MIC) S. aureus ΔNorA” value in the data set on S. aureus ΔNorA is listed as more than 32. Also, the “Selectivity index (CC50/MIC) S. aureus 6538P” value with S. aureus ATCC 6538P was more than 12. The “Selectivity index (CC50/MIC) MRSA 43300” value in the data set on MRSA ATCC 43300 is reported as more than 4.0. For the same compound, in [8], the “Selectivity index (CC50/MIC) VRE NR-31972” value is more than 16.

Consider `CN(CC[C@H](N)CC(=O)N[C@H]1C=C[C@H](n2ccc(N)nc2=O)O[C@@H]1C(=O)NCCc1ccccc1)C(=N)N` [Blastimidine P1, blasticidin S phenethylamide], for which the 50% cytotoxic concentration (CC50) at 24 h in data set [1] is 235 µg/mL (≈ 447 µM). The “Selectivity index (CC50/MIC) MRSA USA300” value in data set [2] was 20. Besides, the MIC in data set [2] is 8 to 16 µg/mL (≈ 15.2 to 30.4 µM); in data set [3], 4 µg/mL (≈ 7.61 µM); in the data set with Pseudomonas aeruginosa, 64 to 128 µg/mL (≈ 122 to 244 µM); in [4], more than 128 µg/mL; in data set [5], more than 128 µg/mL; in data set [6], 16 µg/mL (≈ 30.4 µM). The MIC in data set [7] was 128 µg/mL (≈ 244 µM); in the data set with S. aureus ΔNorA, 128 µg/mL (≈ 244 µM); with S. aureus ATCC 6538P, 16 µg/mL (≈ 30.4 µM); in the data set on MRSA ATCC 43300, 32 µg/mL (≈ 60.9 µM); in data set [8] it was 16 µg/mL (≈ 30.4 µM); in data set [9], more than 128 µg/mL. Besides, the “Selectivity index (CC50/MIC) MRSE 35984” value in data set [3] is listed as 59. Also, in the data set on Pseudomonas aeruginosa, the “Selectivity index (CC50/MIC) P. aeruginosa” value stood at 2.8. Further, the “Selectivity index (CC50/MIC) E. faecalis 29212” value in data set [6] is listed as 15. Further, in data set [7], the “Selectivity index (CC50/MIC) VRE NR-31909” value was 1.8. Further, the “Selectivity index (CC50/MIC) S. aureus ΔNorA” value with S. aureus ΔNorA is 1.8. For the same compound, the “Selectivity index (CC50/MIC) S. aureus 6538P” value in the data set on S. aureus ATCC 6538P was determined as 15. For the same compound, in the data set on MRSA ATCC 43300, the “Selectivity index (CC50/MIC) MRSA 43300” value was determined as 7.3. For the same compound, the “Selectivity index (CC50/MIC) VRE NR-31972” value in [8] was 15.
